The record followed here is ChEMBL document CHEMBL1129361, “Modulators of leukotriene biosynthesis and receptor activation” (J Med Chem, 1996).

The species named for data set [1] is Homo sapiens. Description: Compound was tested in vitro inhibitory activity against human neutrophil CD11b/CD18. The class given is functional.
For data set [2], the system named is Cavia porcellus. Description: Compound was tested in vivo inhibitory activity against LTB4 induced bronchoconstriction in guinea pig (intravenous). The class given is functional.
Data set [3] has as its system Cavia porcellus. Briefly: Compound was tested in vivo inhibitory activity against LTB4 induced bronchoconstriction in guinea pig(po). In kind it is functional.
The species named for data set [4] is Cavia porcellus. Briefly: Compound was tested for LTD4 induced guinea pig trachea contraction. As to conditions: read-out: pA2 (converted). The class given is functional.
Data set [5] addresses T1, Cysteinyl leukotriene receptor (Homo sapiens, UniProt Q9Y271+Q9NS75).
T1 sequence (Q9Y271 whole entry): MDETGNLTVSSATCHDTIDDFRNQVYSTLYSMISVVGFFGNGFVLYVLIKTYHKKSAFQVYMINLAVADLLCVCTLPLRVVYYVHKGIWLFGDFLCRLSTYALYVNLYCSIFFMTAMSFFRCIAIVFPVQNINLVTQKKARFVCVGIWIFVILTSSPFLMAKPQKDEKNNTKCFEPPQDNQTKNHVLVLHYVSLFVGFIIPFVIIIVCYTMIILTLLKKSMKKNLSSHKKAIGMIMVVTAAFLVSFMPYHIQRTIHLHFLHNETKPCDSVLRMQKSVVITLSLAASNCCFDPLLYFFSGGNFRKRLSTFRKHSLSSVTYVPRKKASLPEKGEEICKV
T1 sequence (Q9NS75 whole entry): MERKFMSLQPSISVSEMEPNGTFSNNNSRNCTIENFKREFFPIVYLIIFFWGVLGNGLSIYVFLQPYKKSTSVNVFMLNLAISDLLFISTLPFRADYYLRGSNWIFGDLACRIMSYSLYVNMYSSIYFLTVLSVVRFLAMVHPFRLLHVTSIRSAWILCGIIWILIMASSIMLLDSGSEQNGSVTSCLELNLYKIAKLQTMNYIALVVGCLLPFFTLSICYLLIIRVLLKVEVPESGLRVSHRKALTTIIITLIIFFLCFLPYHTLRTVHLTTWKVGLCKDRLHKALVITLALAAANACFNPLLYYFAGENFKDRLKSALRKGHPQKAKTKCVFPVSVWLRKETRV
Briefly: Binding affinity against Cysteinyl leukotriene D4 receptor. The class given is protein assay.

The nature of data set [6]: phase 1 oral half life at a dose 50 mg - 750 mg. The class given is ADME, organism-based. The note with it: human, in vivo.
Data set [7] has as its system Cavia porcellus. Briefly: (§1) Compound was tested for in vivo inhibition against gp antigen bronchospasm. The class given is functional. The note with it: Bronchiole.
Data set [8] is filed under the species Homo sapiens. Description: Compound was tested for in vitro inhibition against human whole blood. In kind it is functional.
Data set [9] deals with Mus musculus. Description: Compound was tested for in vivo inhibition against mouse AA ear edema. The class given is functional.
Data set [10] is filed under the species Homo sapiens. Briefly: Compound was tested for in vitro inhibition against human PMNL. In kind it is functional.
Data set [11] deals with Rattus norvegicus. Briefly: Compound was tested for in vivo inhibition against rat zymosan induced exudate. In kind it is functional.
For data set [12], the species on record is Rattus norvegicus. Briefly: Compound was tested for in vitro inhibition against Rat PMNL. The class given is functional.
The subject of data set [13] is Mus musculus. Briefly: Compound was tested in vivo inhibitory activity against LTB4 induced mouse peritonitis (orally). In kind it is functional. The note with it: po.
Data set [14] relates to Cavia porcellus. Briefly: Compound was tested in vivo inhibitory activity against AA induced ear edema. In kind it is functional.
The subject of data set [15] is Homo sapiens. Briefly: LTD4 induced broncho constriction (shift in dose response curve 2 hr following 800 mg oral dose). In kind it is functional.
In data set [16] the test system is Homo sapiens. Briefly: Compound was tested for inhibition of LTD4 bronchoconstriction following 4 mg/kg oral dose; active. The class given is functional, organism-based. The note with it: Lung. Also noted: dose 4 mg/kg.
For data set [17], the system named is Monkey. Briefly: Compound was tested for in vivo inhibition against squirrel monkey antigen bronchospasm at 1 mg/kg. The note with it: Bronchiole, in Primates. The class given is functional.
Data set [18] concerns Rattus norvegicus. Briefly: Compound was tested for in vivo inhibition against rat antigen bronchospasm. The class given is functional.
Data set [19] has as its system Rattus norvegicus. Briefly: Compound was tested for in vivo inhibition against rat ionophore LTB4 formation. In kind it is functional.
A short description of data set [20]: Inhibitory activity against LT biosynthesis; […]. In kind it is functional.
The species entered for data set [21] is Cavia porcellus. Description: Compound was evaluated for LTD4 induced against guinea pig trachea contraction. In kind it is functional.
In data set [22] the test system is Cavia porcellus. Description: Compound was tested for in vivo inhibition against antigen bronchospasm. The class given is functional. The note with it: Bronchiole.
Data set [23] is filed under the species Mus musculus. Description: Compound was tested for in vitro inhibition against murine macrophage. In kind it is functional.
For data set [24], the target named is Phosphodiesterase 3 (Homo sapiens, UniProt Q14432+Q13370). Briefly: Inhibition of Phosphodiesterase 3. In kind it is protein assay.
The species entered for data set [25] is Cavia porcellus. Description: Compound was tested for in vitro inhibition against broken guinea pig peritoneal exudate cells. In kind it is functional.
The target in data set [26] is Phosphodiesterase 4 (Homo sapiens, UniProt P27815+Q08499+Q07343+Q08493). Description: Inhibition of Phosphodiesterase 4. The class given is protein assay.
The species entered for data set [27] is Homo sapiens. Briefly: Compound was tested for in vitro inhibition against human PMNL. The class given is functional.
Data set [28] concerns RBL-2H3. Description: Compound was tested for in vitro inhibition against 5-LO translocation in rat basophilic leukemia cells (RBL-2H3). In kind it is functional, cell-based.
Data set [29] is filed under the species Rattus norvegicus. Description: Compound was tested for in vitro inhibition against rat blood. The class given is functional.
Data set [30] is described as follows: phase 1 oral half life at a dose 200 mg. The class given is ADME, organism-based. The note with it: human, in vivo.
In data set [31] the test system is Cavia porcellus. Briefly: Compound was tested for in vivo inhibition against gp AA bronchospasm. In kind it is functional. The note with it: Bronchiole.
A short description of data set [32]: as §1. In kind it is functional. The note with it: Cavia porcellus, Bronchiole.
Data set [33] concerns RBL-1. Description: Compound was tested for in vitro inhibition against broken RBL-1. The class given is functional. As to conditions: Rattus norvegicus.
Data set [34] deals with Rattus norvegicus. Briefly: Compound was tested for in vivo inhibition against rat peritoneal anaphylaxis. The class given is functional.

Each structure is given as a SMILES string. Calls of active or inactive are those of the source. The rule behind the calls is not given here.

In the case of `CCc1cc(-c2ccc(F)cc2)c(O)cc1OCCCOc1ccc2c(=O)c3cc(C(=O)O)ccc3oc2c1CCC(=O)O`, the IC50 in data set [1] was found to be 1.2 nM.
In the case of `CCc1cc(C(C)=O)c(O)cc1OCCCCCC(C)(C)c1nn[nH]n1` [LY-255283], the ED50 came to 2.8 mg/kg in [2] and 11 mg/kg in data set [3].
For the molecule `CC(C)(O)c1ccccc1CC[C@@H](SCC1(CC(=O)O)CC1)c1cccc(/C=C/c2ccc3ccc(Cl)cc3n2)c1` [MONTELUKAST], the Kb in [4] is 0.501 nM.
For the molecule `CCCc1c(OCCCC/C=C\C=C\[C@H](Sc2ccc3c(=O)cc(C(=O)[O-])oc3c2)[C@H](O)c2cccc(C(F)(F)F)c2)ccc(C(C)=O)c1O.[Na+]`, in data set [5], the Ki came out at 26 nM.
In turn, `O=C(O)[C@@H](c1ccc(OCc2ccc3ccccc3n2)cc1)C1CCCC1` [VELIFLAPON] showed a half-life in data set [6] of 240 min. Moreover, the ED50 turned out to be 6.3 mg/kg in data set [7], 49 mg/kg in [9] and 8 mg/kg in [11]. Moreover, the IC50 worked out at 11.6 µM in data set [8], 220 nM in [10] and 26 nM in data set [12].
On to `COc1ccc(CCCCCCCCOc2ccc(CSCc3cccc(C(=O)O)c3)nc2/C=C/C(=O)O)cc1`, for which the ED50 was 7.1 mg/kg in data set [13] and 0.58 mg ear-1 in data set [14].
The molecule `c1ccc(Cc2nn[nH]n2)c(COc2ccc(OCc3ccc4ccccc4n3)cc2)c1` [RG-12525] came in with an inhibition constant (Ki) in [5] of 3 nM. Moreover, the Activity in data set [15] is on record as 7.5.
The molecule `O=C(O)CCS[C@@H](CC(=O)O)c1ccccc1CCCCCCCCc1ccccc1` had a Ki in data set [5] of 60 nM. Moreover, in data set [16], the outcome was Active.
Turning to `CC(C)c1ccc2c(c1)c(SC(C)(C)C)c(CC(C)(C)C(=O)O)n2Cc1ccc(Cl)cc1`, 1 mg/kg produced 85% inhibition in vivo in data set [17]. The ED50 was 0.036 mg/kg in data set [18] and 0.2 mg/kg in [19]. The same molecule showed an IC50 in data set [20] of 5 nM.
For `CCCCCC(O)c1cccc(OCc2ccc3ccccc3n2)c1` (stereo unspecified) [REV-5901], the Ki in [5] was 700 nM. The same molecule yielded a pKB in [21] of 5.5.
`CCCCCCCCC/C=C\C=C\[C@@H](SCCC(=O)O)[C@@H](O)c1cccc(-c2nnn[nH]2)c1`: in data set [4], the Kb is 5.01 nM.
Take `C[C@H](C(=O)O)c1ccc2ccc(OCc3ccc4ccccc4n3)cc2c1.NC(CO)(CO)CO`: the ED50 in [22] worked out at 7.3 mg/kg. The half-inhibitory concentration (IC50) amounted to 160 nM in data set [23]; 15.8 µM in data set [24]; 5.7 µM in data set [25]; 8.9 µM in data set [26]; 1200 nM in data set [27]; 53 nM in data set [28]. In addition, in data set [29], the IC50 turned out to be 8.1 µM.
Consider `C[C@H](C#Cc1ccc(Oc2ccc(F)cc2)o1)N(O)C(N)=O`, for which the half-life in data set [30] was 420 min. The ED50 in data set [31] turned out to be 2 mg/kg; in data set [32] it was 2.5 mg/kg; in data set [9] it was 3 mg/kg; in data set [34] it was 1.5 mg/kg. Moreover, the IC50 in data set [8] was found to be 0.08 µM; in [10] it was 25 nM; in data set [33], 54 nM.
